ChEMBL document CHEMBL1201862, “PubChem BioAssay data set” (2004)
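Step 1: Grow cells in 96-well plates. Step 2: Expose to compound for 48 hours at 5 concentrations. Step 3: Interpolate endpoints linearly; if unreached, use highest concentration. GI50 = concentration required for 50% inhibition of growth.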 The source made the active and inactive calls. Rule as the data show it: active = GI50 up to about 1.1 µM and inactive = higher.

Key:
Experiment in all cases: NCI tumour cell line growth inhibition, 48 h
[1] = tested on: NCI-H226
[2] = tested on: RXF 393
[3] = tested on: A549
[4] = tested on: HOP-62
[5] = tested on: CAKI-1
[6] = tested on: K562
[7] = tested on: HOP-92
[8] = tested on: RPMI-8226
[9] = tested on: T47D
[10] = tested on: ACHN
[11] = tested on: CCRF-CEM
[12] = tested on: SK-OV-3
[13] = tested on: OVCAR-5
[14] = tested on: HCC 2998
[15] = tested on: MDA-MB-435
[16] = tested on: SK-MEL-5
[17] = tested on: HT-29
[18] = tested on: SR
[19] = tested on: HCT-15
[20] = tested on: SF-268

Structure (SMILES)	GI50 [1]	GI50 [2]	GI50 [3]	GI50 [4]	GI50 [5]	GI50 [6]	GI50 [7]	GI50 [8]	GI50 [9]	GI50 [10]	GI50 [11]	GI50 [12]	GI50 [13]	GI50 [14]	GI50 [15]	GI50 [16]	GI50 [17]	GI50 [18]	GI50 [19] [µM]	GI50 [20]
CC(C)NCCCNc1c2ccccc2nc2cccc([N+](=O)[O-])c12	0.0219 µM (active)	0.00427 µM (active)	0.00358 µM (active)	0.0279 µM (active)	0.029 µM (active)	0.00262 µM (active)	0.00389 µM (active)	0.00219 µM (active)	0.00851 µM (active)	0.0136 µM (active)	0.0142 µM (active)	0.0566 µM (active)	0.0128 µM (active)	0.00406 µM (active)	0.0103 µM (active)	0.00354 µM (active)	0.00202 µM (active)	< 0.001 µM (active)	0.0504	0.00757 µM (active)
CCCCCCCCCCCCCCCCCCOCC(O)COP(=O)(O)OCC1OC(n2cc(F)c(=O)[nH]c2=O)CC1O (stereo not given)	> 35.6 µM (inactive)	11.9 µM (inactive)	0.51 µM (active)	0.15 µM (active)	2.16 µM (inactive)	10.4 µM (inactive)	4.02 µM (inactive)	2.17 µM (inactive)	2.58 µM (inactive)	0.38 µM (active)	0.318 µM (active)	12.8 µM (inactive)	12.5 µM (inactive)	0.0467 µM (active)	17.7 µM (inactive)	4.01 µM (inactive)	10.5 µM (inactive)	0.533 µM (active)	10.8	0.236 µM (active)
CC/C=C\C/C=C\C/C=C\CCCCCCCC(=O)OC(COC(=O)CCCCCCCCCCCCCCCCC)COC1OC(CO)C(O)C(O)C1O (stereo not given)	> 25 µM (inactive)	> 25 µM (inactive)	> 25 µM (inactive)	> 25 µM (inactive)	> 25 µM (inactive)	18.6 µM (inactive)	> 25 µM (inactive)	8.57 µM (inactive)	> 25 µM (inactive)	> 25 µM (inactive)	> 25 µM (inactive)	> 25 µM (inactive)	> 25 µM (inactive)	> 25 µM (inactive)	> 25 µM (inactive)	> 25 µM (inactive)	22.8 µM (inactive)	> 25 µM (inactive)	> 25	> 25 µM (inactive)
CN1CCN(CCCCN2c3ccccc3Sc3cc(N=[N+]=[N-])ccc32)CC1	5.93 µM (inactive)	2.7 µM (inactive)	1.94 µM (inactive)	2.49 µM (inactive)	2.01 µM (inactive)	1.38 µM (inactive)	1.94 µM (inactive)	2.31 µM (inactive)	9.23 µM (inactive)	2.15 µM (inactive)	2.14 µM (inactive)	8.49 µM (inactive)	12.6 µM (inactive)	1.39 µM (inactive)	1.7 µM (inactive)	1.57 µM (inactive)	1.61 µM (inactive)	5.5 µM (inactive)	2.28	6.19 µM (inactive)
Cc1cc2c(O)c(c1)CN(CC(=O)O)Cc1cc(C)cc(c1O)CN(CC(=O)O)Cc1cc(C)cc(c1O)CN(CC(=O)O)C2	> 100 µM (inactive)	> 100 µM (inactive)	> 100 µM (inactive)	> 100 µM (inactive)	> 100 µM (inactive)	> 100 µM (inactive)	64.4 µM (inactive)	> 100 µM (inactive)	> 100 µM (inactive)	> 100 µM (inactive)	> 100 µM (inactive)	> 100 µM (inactive)	> 100 µM (inactive)	> 100 µM (inactive)	> 100 µM (inactive)	> 100 µM (inactive)	> 100 µM (inactive)	> 100 µM (inactive)	> 100	> 100 µM (inactive)
O=S(=O)(O)CCCc1cccc2ccccc12	> 100 µM (inactive)	> 100 µM (inactive)	> 100 µM (inactive)	> 100 µM (inactive)	> 100 µM (inactive)	> 100 µM (inactive)	> 100 µM (inactive)	> 100 µM (inactive)	> 100 µM (inactive)	> 100 µM (inactive)	> 100 µM (inactive)	> 100 µM (inactive)	> 100 µM (inactive)	> 100 µM (inactive)	> 100 µM (inactive)	> 100 µM (inactive)	> 100 µM (inactive)	> 100 µM (inactive)	> 100	> 100 µM (inactive)
O=c1ccn(CC2(CO)CCCC2)c(=O)[nH]1	> 100 µM (inactive)	> 100 µM (inactive)	> 100 µM (inactive)	> 100 µM (inactive)	> 100 µM (inactive)	> 100 µM (inactive)	> 100 µM (inactive)	> 100 µM (inactive)	> 100 µM (inactive)	> 100 µM (inactive)	> 100 µM (inactive)	> 100 µM (inactive)	> 100 µM (inactive)	> 100 µM (inactive)	> 100 µM (inactive)	> 100 µM (inactive)	> 100 µM (inactive)	> 100 µM (inactive)	> 100	> 100 µM (inactive)
CC1(C)CC[C@]2(C(=O)O)CC[C@]3(C)C(=CC[C@@H]4[C@@]5(C)CC[C@H](OC6OC(CO)C(O)C(O)C6OC6OC(CO)C(O)C(O)C6O)C(C)(C)[C@@H]5CC[C@]43C)[C@@H]2C1 (stereo not given in full)	17.6 µM (inactive)	19.1 µM (inactive)	18.3 µM (inactive)	17.8 µM (inactive)	19.5 µM (inactive)	19.8 µM (inactive)	17.6 µM (inactive)	23.2 µM (inactive)	21.3 µM (inactive)	18.5 µM (inactive)	21.2 µM (inactive)	17.8 µM (inactive)	2.49 µM (inactive)	20.8 µM (inactive)	20 µM (inactive)	19 µM (inactive)	15.8 µM (inactive)	22.5 µM (inactive)	18	17.2 µM (inactive)
CC(C)(C)c1cc(C(=O)/C=C/c2cc[nH]n2)cc(C(C)(C)C)c1O	5.73 µM (inactive)	1.69 µM (inactive)	3.02 µM (inactive)	2.86 µM (inactive)	2.48 µM (inactive)	3.08 µM (inactive)	2.21 µM (inactive)	1.06 µM (active)	1.11 µM (active)	1.62 µM (inactive)	2.07 µM (inactive)	15.7 µM (inactive)	5.37 µM (inactive)	1.88 µM (inactive)	2.77 µM (inactive)	7.52 µM (inactive)	2.61 µM (inactive)	1.19 µM (inactive)	2.11	2.4 µM (inactive)
COc1ccc(C(OCC2OC(n3ccc(Oc4c(F)c(F)c(F)c(F)c4F)nc3=O)CC2OP(OCCC#N)N(C(C)C)C(C)C)(c2ccccc2)c2ccc(OC)cc2)cc1 (stereo not given)	> 100 µM (inactive)	> 100 µM (inactive)	> 100 µM (inactive)	> 100 µM (inactive)	> 100 µM (inactive)	> 100 µM (inactive)	> 100 µM (inactive)	> 100 µM (inactive)	> 100 µM (inactive)	> 100 µM (inactive)	77.3 µM (inactive)	> 100 µM (inactive)	> 100 µM (inactive)	> 100 µM (inactive)	> 100 µM (inactive)	68.2 µM (inactive)	> 100 µM (inactive)	> 100 µM (inactive)	> 100	> 100 µM (inactive)
N#Cc1nc2ccccc2nc1N1CCN(c2ccc([N+](=O)[O-])cc2)CC1	> 100 µM (inactive)	> 100 µM (inactive)	> 100 µM (inactive)	> 100 µM (inactive)	> 100 µM (inactive)	–	> 100 µM (inactive)	> 100 µM (inactive)	> 100 µM (inactive)	> 100 µM (inactive)	> 100 µM (inactive)	> 100 µM (inactive)	> 100 µM (inactive)	> 100 µM (inactive)	> 100 µM (inactive)	> 100 µM (inactive)	> 100 µM (inactive)	0.0339 µM (active)	> 100	> 100 µM (inactive)
C=C1NC(=O)C(CC(C(=O)C(=O)Nc2c(C)cccc2C(C)(C)C)C(=O)c2ccc3ccccc3c2)C(=O)N1 (stereo not given)	> 100 µM (inactive)	> 100 µM (inactive)	> 100 µM (inactive)	–	> 100 µM (inactive)	> 100 µM (inactive)	> 100 µM (inactive)	> 100 µM (inactive)	> 100 µM (inactive)	> 100 µM (inactive)	> 100 µM (inactive)	> 100 µM (inactive)	> 100 µM (inactive)	> 100 µM (inactive)	> 100 µM (inactive)	> 100 µM (inactive)	> 100 µM (inactive)	> 100 µM (inactive)	> 100	> 100 µM (inactive)
O=C(c1ccccc1)c1c2ccccn2c2cccc[n+]12	> 100 µM (inactive)	> 100 µM (inactive)	82.4 µM (inactive)	> 100 µM (inactive)	> 100 µM (inactive)	> 100 µM (inactive)	> 100 µM (inactive)	> 100 µM (inactive)	> 100 µM (inactive)	–	> 100 µM (inactive)	> 100 µM (inactive)	> 100 µM (inactive)	> 100 µM (inactive)	> 100 µM (inactive)	47 µM (inactive)	> 100 µM (inactive)	> 100 µM (inactive)	> 100	> 100 µM (inactive)
NNC(=O)CSc1nc2ccccc2c(=O)n1N	> 100 µM (inactive)	31.7 µM (inactive)	> 100 µM (inactive)	–	32.8 µM (inactive)	> 100 µM (inactive)	22.5 µM (inactive)	> 100 µM (inactive)	> 100 µM (inactive)	26.4 µM (inactive)	> 100 µM (inactive)	–	> 100 µM (inactive)	> 100 µM (inactive)	> 100 µM (inactive)	> 100 µM (inactive)	22.2 µM (inactive)	> 100 µM (inactive)	> 100	39.9 µM (inactive)
